Assay results reported in patent publication US20220227728A1, “Microtubule-associated protein Tau imaging compounds for Alzheimer's disease and precursors thereof” (priority 2021, published 2022).
“Also recorded” adds a separate entry of the source.

Tested on: microtubule-associated protein Tau
Experiment: nano PET/CT imaging in P301L gene transgenic mice and control mice
Assay type: in vivo
Conditions: 0.46 mCi by tail vein, 30 minutes of distribution
Text: FIG. 3 is an image of the microtubule-associated protein Tau compound 29 of the present invention in P301L gene transgenic mice and control mice using positron emission tomography (nano PET/CT) analysis, in which P301L gene transgenic mice (source: United States JACKSON Research Center) refers to the mutation of proline to leucine at codon 301 of the encoded microtubule-associated protein Tau. These types of mutations can accelerate the formation of neurofibrillary tangles. P301L gene transgenic mice and control mice were injected through the tail vein with 0.46 millicuries (mCi) of compound 29 of the present invention, and after 30 minutes of distribution, radiography was performed on the mice using a positron emission tomography scanner (BIOSCAN).
0.46 mCi of compound 29 was injected into P301L gene transgenic mice and control mice, and after 30 minutes of distribution nano-PET/CT was used for contrast imaging.

CC([18F])COc1ccc2cc(-n3cc4ccccc4c3)ncc2c1 (stereo not shown) [compound 29, [18F] 7-(2-fluoropropoxy)-3-(2H-isoindol-2-yl) isoquinoline]
drug accumulation (absorption) in the brain of P301L gene transgenic mice versus control mice: significantly higher than that of the control mice; also recorded: significantly greater than that of control mice
